We go through 3 compounds from ChEMBL document CHEMBL1201862, “PubChem BioAssay data set” (2004).

One assay has as its target T1, Protein RecA (Mycobacterium tuberculosis, UniProt P9WHJ3).
T1 sequence (P9WHJ3 whole entry): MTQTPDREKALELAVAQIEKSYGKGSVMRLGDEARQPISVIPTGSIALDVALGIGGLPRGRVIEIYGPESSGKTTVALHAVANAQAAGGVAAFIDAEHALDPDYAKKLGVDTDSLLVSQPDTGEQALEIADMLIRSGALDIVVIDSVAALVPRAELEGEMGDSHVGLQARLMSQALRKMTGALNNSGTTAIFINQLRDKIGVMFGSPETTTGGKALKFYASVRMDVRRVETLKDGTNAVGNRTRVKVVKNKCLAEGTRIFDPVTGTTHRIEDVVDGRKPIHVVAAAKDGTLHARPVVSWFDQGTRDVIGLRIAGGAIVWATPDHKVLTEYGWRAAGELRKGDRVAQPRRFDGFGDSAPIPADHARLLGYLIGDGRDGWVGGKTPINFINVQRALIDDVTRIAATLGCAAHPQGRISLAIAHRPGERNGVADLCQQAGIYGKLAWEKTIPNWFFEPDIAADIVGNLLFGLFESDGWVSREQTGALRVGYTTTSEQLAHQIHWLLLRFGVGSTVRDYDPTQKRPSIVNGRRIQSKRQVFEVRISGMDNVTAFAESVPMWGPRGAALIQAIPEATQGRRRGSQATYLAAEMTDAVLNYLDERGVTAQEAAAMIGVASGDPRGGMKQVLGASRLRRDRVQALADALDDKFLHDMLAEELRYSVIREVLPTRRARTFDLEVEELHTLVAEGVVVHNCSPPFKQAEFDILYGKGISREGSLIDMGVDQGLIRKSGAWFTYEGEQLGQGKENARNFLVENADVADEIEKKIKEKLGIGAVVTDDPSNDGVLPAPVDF
Put plainly: Fluorescence Cell-Free Homogeneous Dose Retest to Identify Inhibitors of RecA-Intein Splicing Activity. [Related pubchem assays (depositor defined):AID2097, AID2223, AID489010, AID492950]. Format: functional.

In assay [1] the target is T2, Replicative DNA helicase DnaB (Mycobacterium tuberculosis, UniProt P9WMR3).
T2 sequence (P9WMR3 whole entry): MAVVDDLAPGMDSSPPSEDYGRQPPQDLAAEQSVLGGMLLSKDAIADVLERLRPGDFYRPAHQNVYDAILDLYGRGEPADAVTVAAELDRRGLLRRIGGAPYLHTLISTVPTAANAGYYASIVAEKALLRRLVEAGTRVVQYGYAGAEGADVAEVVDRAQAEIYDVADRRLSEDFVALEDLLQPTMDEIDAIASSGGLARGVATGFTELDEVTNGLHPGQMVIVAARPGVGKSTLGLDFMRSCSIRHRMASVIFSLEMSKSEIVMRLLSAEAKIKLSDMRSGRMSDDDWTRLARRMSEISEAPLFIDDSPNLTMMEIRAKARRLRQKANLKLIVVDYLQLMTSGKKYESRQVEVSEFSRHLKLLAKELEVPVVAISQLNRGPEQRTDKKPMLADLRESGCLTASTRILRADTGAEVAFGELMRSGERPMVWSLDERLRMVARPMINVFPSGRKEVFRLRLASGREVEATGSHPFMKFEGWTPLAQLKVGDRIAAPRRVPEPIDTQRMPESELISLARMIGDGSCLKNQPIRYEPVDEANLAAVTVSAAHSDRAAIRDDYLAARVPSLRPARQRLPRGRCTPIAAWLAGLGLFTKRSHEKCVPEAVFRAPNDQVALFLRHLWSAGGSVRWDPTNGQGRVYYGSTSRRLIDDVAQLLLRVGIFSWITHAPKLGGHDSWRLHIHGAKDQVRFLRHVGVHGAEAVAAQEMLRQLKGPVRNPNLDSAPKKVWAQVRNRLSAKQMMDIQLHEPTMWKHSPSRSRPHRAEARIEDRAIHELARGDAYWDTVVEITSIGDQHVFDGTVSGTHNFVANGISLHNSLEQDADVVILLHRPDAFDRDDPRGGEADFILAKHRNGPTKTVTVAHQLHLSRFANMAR
Put plainly: DnaB intein splicing inhibitors, dose response, biochemical, cell-free fluorescence (AID 449749). Type of assay: functional.

In assay [2] the target is T3, Ubiquitin-conjugating enzyme E2 N (Homo sapiens, UniProt P61088).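 Further: Dose-response confirmation in a TR-FRET assay detecting UBC13-driven polyubiquitin chain formation, inhibition measured.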
T3 sequence (P61088 whole entry): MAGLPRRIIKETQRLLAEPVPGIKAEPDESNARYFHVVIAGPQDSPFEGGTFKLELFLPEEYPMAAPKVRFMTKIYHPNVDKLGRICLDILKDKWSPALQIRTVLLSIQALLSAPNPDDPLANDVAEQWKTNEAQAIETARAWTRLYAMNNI
Format: functional.

Assay [3] concerns the target T4, DNA repair protein RAD52 homolog (Homo sapiens, UniProt P43351).
T4 sequence (P43351 whole entry): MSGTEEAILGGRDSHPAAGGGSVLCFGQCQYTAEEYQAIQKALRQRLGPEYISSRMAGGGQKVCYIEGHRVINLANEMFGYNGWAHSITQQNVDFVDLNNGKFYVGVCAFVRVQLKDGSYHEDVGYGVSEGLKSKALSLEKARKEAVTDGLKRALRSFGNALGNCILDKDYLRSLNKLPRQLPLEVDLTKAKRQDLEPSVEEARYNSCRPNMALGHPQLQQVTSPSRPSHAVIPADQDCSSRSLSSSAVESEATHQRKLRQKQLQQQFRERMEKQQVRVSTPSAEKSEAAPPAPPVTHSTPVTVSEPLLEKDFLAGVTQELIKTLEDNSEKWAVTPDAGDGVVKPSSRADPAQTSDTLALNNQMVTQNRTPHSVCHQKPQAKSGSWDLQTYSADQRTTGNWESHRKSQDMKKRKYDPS
Type of assay: functional, biochemical.

Activity calls are given as the source filed them. Some results are limits rather than exact numbers.

In general, EC50 refers to the concentration at which the effect is half-maximal. A word on the AC50: it is the midpoint of the concentration-response curve, whichever way the signal moves. `CC(C)[n+]1ccn(C2=C([N-]S(=O)(=O)c3ccccc3)C(=O)c3ccccc3C2=O)c1`: the concentration for a half-maximal effect (EC50) on Protein RecA is 12 µM (active). In assay [1], the AC50 is 12.3 µM (active).
Broadly, the IC50 is the midpoint of a concentration-inhibition curve. On to `CCCCCCCCCCOC(=O)Cn1c(COc2ccccc2)[n+](C)c2ccccc21`, for which, at Protein RecA, the EC50 was 9.4 µM (active). For the same compound, the IC50 in assay [2] is > 20 µM (inactive). For the same compound, the AC50 in assay [3] was 12.5 µM (active); in assay [1] it was 3.6 µM (active).
Turning to `CCOC(=O)c1c(-c2ccc(-c3ccccc3)cc2)csc1NC(=O)CNCCN(C)C`, the 50% inhibitory concentration (IC50) in assay [2] was 11.4 µM (active). Further, the concentration at half-maximal activity (AC50) in assay [3] is 5.29 µM (active).
